{"source": "patent US10105357B2", "about": "“Indication of antibiotic drugs for preparation of cancer inhibition pharmaceutical composition” (LAUNX BIOMEDICAL CO., LTD., priority 2014, dated 2018)", "key": {"[1]": {"test_system": "LoVo (Colorectal Adenocarcinoma)", "test": "Cell viability analysis, colon cancer LoVo", "type": "cell-based, human"}, "[2]": {"test_system": "MKN-45 (Gastric Adenocarcinoma)", "test": "Cell viability analysis, gastric cancer MKN-45", "type": "cell-based, human"}, "T24": {"test_system": "T24", "test": "Cell viability analysis, bladder cancer T24", "type": "cell-based, human"}, "BxPC-3": {"test_system": "BxPC-3", "test": "Cell viability analysis, pancreatic cancer BxPC-3", "type": "cell-based, human"}, "U-2OS": {"test_system": "U-2OS", "test": "Cell viability analysis, osteosarcoma U-2OS", "type": "cell-based, human"}, "[3]": {"test_system": "BCC (basal cell carcinoma)", "test": "Cell viability analysis, skin cancer BCC", "type": "cell-based, human"}, "[4]": {"test_system": "786-O (Renal adenocarcinoma)", "test": "Cell viability analysis, renal cancer 786-O", "type": "cell-based, human"}, "[5]": {"test_system": "Hep3B (hepatocellular carcinoma)", "test": "Cell viability analysis, hepatic cancer Hep3B", "type": "cell-based, human"}, "[6]": {"test_system": "HeLa (Cervix Adenocarcinoma)", "test": "Cell viability analysis, cervical cancer HeLa", "type": "cell-based, human"}, "[7]": {"test_system": "AGS (Gastric Adenocarcinoma)", "test": "Cell viability analysis, gastric cancer AGS", "type": "cell-based, human"}, "[8]": {"test_system": "MCF7 (Mammary Gland, Adenocarcinoma)", "test": "Cell viability analysis, breast cancer MCF7", "type": "cell-based, human"}, "[9]": {"test_system": "PC3 (p53−) (Prostate Adenocarcinoma)", "test": "Cell viability analysis, prostate cancer PC3", "type": "cell-based, human"}, "[10]": {"test_system": "A549 (Lung Adenocarcinoma)", "test": "Cell viability analysis, lung cancer A549", "type": "cell-based, human"}, "[11]": {"test_system": "TSGH-8301 (Urinary Bladder Carcinoma)", "test": "Cell viability analysis, bladder cancer TSGH-8301", "type": "cell-based, human"}, "NIH: OVCAR-3": {"test_system": "NIH: OVCAR-3", "test": "Cell viability analysis, ovarian cancer NIH: OVCAR-3", "type": "cell-based, human"}, "[12]": {"test_system": "A375 (Amelanotic Melanoma)", "test": "Cell viability analysis, skin cancer A375", "type": "cell-based, human"}, "cancer cell lines": {"test_system": "cancer cell lines", "test": "Cell viability analysis (WST-1) on cancer cell lines", "type": "cell-based, human", "details": "drug 10 μM, 72 hours, WST-1; Table 3"}, "[13]": {"test_system": "HCT116 (p53+) (Colorectal Carcinoma)"}, "AsPC-1": {"test_system": "AsPC-1", "test": "Cell viability analysis, pancreatic cancer AsPC-1", "type": "cell-based, human"}, "[14]": {"test_system": "SAS (Tongue squamous cell carcinoma)", "test": "Cell viability analysis, tongue cancer SAS", "type": "cell-based, human"}, "[15]": {"test_system": "HepG2 (Hepatocellular Carcinoma)", "test": "Cell viability analysis, hepatic cancer HepG2", "type": "cell-based, human"}, "[16]": {"test_system": "HI650 (Lung Adenocarcinoma)", "test": "Cell viability analysis, lung cancer HI650", "type": "cell-based, human"}, "[17]": {"test_system": "C-33A (Cervical carcinoma)", "test": "Cell viability analysis, cervical cancer C-33A", "type": "cell-based, human"}, "[18]": {"test_system": "MDA-MB-231 (Mammary Gland, Adenocarcinoma)", "test": "Cell viability analysis, breast cancer MDA-MB-231", "type": "cell-based, human"}, "TOV-21G": {"test_system": "TOV-21G", "test": "Cell viability analysis, ovarian cancer TOV-21G", "type": "cell-based, human"}}, "data": [{"molecule": "CC1(C)[C@@H](O[C@H]2O[C@H](C(=O)O)[C@@H](O)[C@H](O)[C@H]2O[C@@H]2O[C@H](C(=O)O)[C@@H](O)[C@H](O)[C@H]2O)CC[C@]2(C)[C@H]3C(=O)C=C4[C@@H]5C[C@@](C)(C(=O)O)CC[C@]5(C)CC[C@@]4(C)[C@]3(C)CC[C@@H]12", "note": "[Ammonium Glycyrrhizinate (AMGZ), Ammonium Glycyrrhizinate]", "values": [{"measurement": "The results of antibiotic drug inhibiting cancer cell lines (cell viability analysis), LoVo", "setting": "[1]", "value": 100.4}, {"measurement": "The results of antibiotic drug inhibiting cancer cell lines (cell viability analysis), MKN-45", "setting": "[2]", "value": 96.41}, {"measurement": "The results of antibiotic drug inhibiting cancer cell lines (cell viability analysis), T24", "setting": "T24", "value": 107.9}, {"measurement": "The results of antibiotic drug inhibiting cancer cell lines (cell viability analysis), BxPC-3", "setting": "BxPC-3", "value": 102.8}, {"measurement": "The results of antibiotic drug inhibiting cancer cell lines (cell viability analysis), U2OS", "setting": "U-2OS", "value": 78.97}, {"measurement": "The results of antibiotic drug inhibiting cancer cell lines (cell viability analysis), BCC", "setting": "[3]", "value": 93.09}, {"measurement": "The results of antibiotic drug inhibiting cancer cell lines (cell viability analysis), 786-O", "setting": "[4]", "value": 102.9}, {"measurement": "The results of antibiotic drug inhibiting cancer cell lines (cell viability analysis), Hep3B", "setting": "[5]", "value": 102.1}, {"measurement": "The results of antibiotic drug inhibiting cancer cell lines (cell viability analysis), HeLa", "setting": "[6]", "value": 103.4}, {"measurement": "The results of antibiotic drug inhibiting cancer cell lines (cell viability analysis), AGS", "setting": "[7]", "value": 109.2}, {"measurement": "The results of antibiotic drug inhibiting cancer cell lines (cell viability analysis), MCF-7", "setting": "[8]", "value": 69.06}, {"measurement": "The results of antibiotic drug inhibiting cancer cell lines (cell viability analysis), PC-3", "setting": "[9]", "value": 120.7}, {"measurement": "The results of antibiotic drug inhibiting cancer cell lines (cell viability analysis), A549", "setting": "[10]", "value": 83.55}, {"measurement": "The results of antibiotic drug inhibiting cancer cell lines (cell viability analysis), TSGH-8301", "setting": "[11]", "value": 105.2}, {"measurement": "The results of antibiotic drug inhibiting cancer cell lines (cell viability analysis), NIH-OVCAR-3", "setting": "NIH: OVCAR-3", "value": 101}, {"measurement": "The results of antibiotic drug inhibiting cancer cell lines (cell viability analysis), A375", "setting": "[12]", "value": 100.5}, {"measurement": "inhibition effect on different cancer cell lines", "setting": "cancer cell lines", "value": "significant inhibition effect"}, {"measurement": "viability", "setting": "[13]", "value": 93.4, "unit": "%"}, {"measurement": "The results of antibiotic drug inhibiting cancer cell lines (cell viability analysis), AsPC-1", "setting": "AsPC-1", "value": 100.6}, {"measurement": "The results of antibiotic drug inhibiting cancer cell lines (cell viability analysis), SAS", "setting": "[14]", "value": 83.22}, {"measurement": "The results of antibiotic drug inhibiting cancer cell lines (cell viability analysis), HepG2", "setting": "[15]", "value": 119.7}, {"measurement": "The results of antibiotic drug inhibiting cancer cell lines (cell viability analysis), H1650", "setting": "[16]", "value": 76.88}, {"measurement": "The results of antibiotic drug inhibiting cancer cell lines (cell viability analysis), C-33A", "setting": "[17]", "value": 108.4}, {"measurement": "The results of antibiotic drug inhibiting cancer cell lines (cell viability analysis), MDA-MB231", "setting": "[18]", "value": 98.74}, {"measurement": "The results of antibiotic drug inhibiting cancer cell lines (cell viability analysis), TOV-21G", "setting": "TOV-21G", "value": 74.39}]}]}
